The source of these data is PubChem BioAssay (NCI).

Test systems include HCT-15 colon; ACHN renal; BT-549 breast; OVCAR-8 ovarian; HT29 colon; SK-MEL-2 melanoma; MCF7 breast; NCI-H23 lung; CAKI-1 renal; PC-3 prostate; M14 melanoma; DU-145 prostate; MOLT-4 leukemia; HCT-116 colon; RPMI-8226 leukemia; OVCAR-4 ovarian; T-47D breast; SW-620 colon; A549 NSCLC; SN12C renal.
What all share (test): growth of human tumour cells (NCI), 48 h

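Assay format: 96-well plates, 48-hour exposure. TGI: total growth inhibition.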 Bounds are passed on as bounds.

Take `COc1cc(-c2nc3ccccn3c2/N=C/c2cc(Br)cc(Br)c2O)ccc1O`: the TGI with HCT-15 colon was 44.8 µM; with ACHN renal it was greater than 100 µM; in the experiment on BT-549 breast, 53.3 µM; with OVCAR-8 ovarian, 61.8 µM; in the experiment on HT29 colon it was 57.1 µM; with SK-MEL-2 melanoma it was 42.2 µM. For the same compound, the TGI in the experiment with MCF7 breast came out at 53.8 µM; in the experiment on NCI-H23 lung, 67.9 µM; in the experiment with CAKI-1 renal, 93.3 µM; in the experiment with PC-3 prostate, 65.8 µM; with M14 melanoma, 38.5 µM; with DU-145 prostate it was 84.3 µM. The TGI with MOLT-4 leukemia was 73.7 µM; with HCT-116 colon it was 34.7 µM; with RPMI-8226 leukemia it was greater than 100 µM; in the experiment with OVCAR-4 ovarian it was 61.3 µM; in the experiment on T-47D breast, 74.3 µM; with SW-620 colon it was 71.2 µM. Also, the TGI with A549 NSCLC was greater than 100 µM; in the experiment with SN12C renal, 40.6 µM.

`O=C1NC(=S)NC(=O)C1C(c1ccc(O)cc1)C1C(=O)NC(=S)NC1=O`: the TGI in the experiment with HCT-15 colon, in the experiment with ACHN renal, in the experiment on BT-549 breast, in the experiment on OVCAR-8 ovarian, with HT29 colon and in the experiment with SK-MEL-2 melanoma was greater than 100 µM throughout. Also, the TGI in the experiment on MCF7 breast, in the experiment on NCI-H23 lung, in the experiment with CAKI-1 renal, with PC-3 prostate, in the experiment with M14 melanoma and in the experiment on DU-145 prostate was greater than 100 µM in each case. For the same compound, the TGI in the experiment with MOLT-4 leukemia, in the experiment with HCT-116 colon, with RPMI-8226 leukemia, in the experiment with OVCAR-4 ovarian, in the experiment with T-47D breast and in the experiment on SW-620 colon was greater than 100 µM throughout. Further, the TGI in the experiment with A549 NSCLC and in the experiment on SN12C renal was greater than 100 µM each time.

`O=C(N/N=C\C=C\c1ccc([N+](=O)[O-])o1)C(=O)N/N=C\C=C\c1ccc([N+](=O)[O-])o1`: the TGI in the experiment with HCT-15 colon was greater than 100 µM; in the experiment with ACHN renal, greater than 100 µM; in the experiment with BT-549 breast, greater than 100 µM; in the experiment on OVCAR-8 ovarian, 59.1 µM; in the experiment on HT29 colon, greater than 100 µM; in the experiment with SK-MEL-2 melanoma, greater than 100 µM. Also, the TGI in the experiment with MCF7 breast, in the experiment with NCI-H23 lung, in the experiment on CAKI-1 renal, in the experiment on PC-3 prostate, in the experiment with M14 melanoma and in the experiment on DU-145 prostate was greater than 100 µM each time. Moreover, the TGI in the experiment with MOLT-4 leukemia is greater than 100 µM; in the experiment with HCT-116 colon, greater than 100 µM; in the experiment with RPMI-8226 leukemia it was greater than 100 µM; in the experiment on OVCAR-4 ovarian, greater than 100 µM; in the experiment on T-47D breast, greater than 100 µM; in the experiment on SW-620 colon, 58.8 µM. Also, the TGI in the experiment on A549 NSCLC and in the experiment with SN12C renal was greater than 100 µM each time.

`CCOC(=O)c1cn2c(n1)sc1cc(Cl)ccc12`: the TGI in the experiment with HCT-15 colon, with ACHN renal, in the experiment on BT-549 breast, in the experiment with OVCAR-8 ovarian, in the experiment on HT29 colon and with SK-MEL-2 melanoma was greater than 100 µM each time. The TGI in the experiment on MCF7 breast, with NCI-H23 lung, in the experiment with CAKI-1 renal, with PC-3 prostate, in the experiment on M14 melanoma and in the experiment with DU-145 prostate was greater than 100 µM in each case. The TGI was greater than 100 µM with MOLT-4 leukemia; 13.6 µM in the experiment on HCT-116 colon; greater than 100 µM with RPMI-8226 leukemia; greater than 100 µM in the experiment with OVCAR-4 ovarian; greater than 100 µM with T-47D breast; greater than 100 µM in the experiment on SW-620 colon. Also, the TGI in the experiment on A549 NSCLC and in the experiment with SN12C renal was greater than 100 µM in each case.

For the compound `O=C(NCP(=O)(c1ccccc1)c1ccccc1)OCc1ccccc1`, the TGI in the experiment with HCT-15 colon, in the experiment with ACHN renal, in the experiment on BT-549 breast, in the experiment on OVCAR-8 ovarian, in the experiment with HT29 colon and in the experiment on SK-MEL-2 melanoma was greater than 100 µM in each case. The TGI with MCF7 breast, with NCI-H23 lung, in the experiment with CAKI-1 renal, in the experiment on PC-3 prostate, in the experiment on M14 melanoma and with DU-145 prostate was greater than 100 µM in each case. For the same compound, the TGI in the experiment on MOLT-4 leukemia, with HCT-116 colon, in the experiment with RPMI-8226 leukemia, in the experiment on OVCAR-4 ovarian, in the experiment on T-47D breast and in the experiment on SW-620 colon was greater than 100 µM each time. Also, the TGI in the experiment on A549 NSCLC and in the experiment on SN12C renal was greater than 100 µM in each case.

Turning to `COc1cc2cc3c4cc(OC)c(OC)cc4cc[n+]3c(C)c2cc1OC` (tested in a mixture with another compound), the TGI with HCT-15 colon is greater than 100 µM; with ACHN renal, greater than 100 µM; with BT-549 breast, greater than 100 µM; in the experiment with OVCAR-8 ovarian it was greater than 100 µM; in the experiment on HT29 colon, greater than 69.1 µM; with SK-MEL-2 melanoma, greater than 100 µM. The TGI in the experiment on MCF7 breast, in the experiment on NCI-H23 lung, with CAKI-1 renal, with PC-3 prostate, in the experiment with M14 melanoma and in the experiment with DU-145 prostate was greater than 100 µM each time. Besides, the TGI in the experiment on MOLT-4 leukemia, in the experiment with HCT-116 colon, with RPMI-8226 leukemia, with OVCAR-4 ovarian, with T-47D breast and in the experiment with SW-620 colon was greater than 100 µM throughout. Further, the TGI with A549 NSCLC and in the experiment on SN12C renal was greater than 100 µM each time.

Turning to `CN(C)CCCN=c1c2ccccc2n(O)c2ccccc12`, the TGI in the experiment on HCT-15 colon was greater than 100 µM; in the experiment with ACHN renal it was greater than 100 µM; in the experiment on BT-549 breast it was 63.4 µM; with OVCAR-8 ovarian, greater than 100 µM; with HT29 colon, 28.8 µM; with SK-MEL-2 melanoma it was greater than 100 µM. Further, the TGI with MCF7 breast, with NCI-H23 lung, in the experiment on CAKI-1 renal, with PC-3 prostate, with M14 melanoma and in the experiment with DU-145 prostate was greater than 100 µM throughout. Besides, the TGI in the experiment on MOLT-4 leukemia, in the experiment on HCT-116 colon, in the experiment with RPMI-8226 leukemia, in the experiment on OVCAR-4 ovarian, with T-47D breast and in the experiment with SW-620 colon was greater than 100 µM throughout. Also, the TGI in the experiment on A549 NSCLC and in the experiment on SN12C renal was greater than 100 µM each time.

For `CCC(=O)Oc1ccc2c(c1)c(=O)c1c(NCCCN(C)C)ccc3nnn2c31`, the TGI in the experiment on HCT-15 colon was 15.9 µM; in the experiment with ACHN renal, 12.7 µM; in the experiment on BT-549 breast it was 24.7 µM; in the experiment with OVCAR-8 ovarian, 15.1 µM; in the experiment on HT29 colon it was 11.6 µM; with SK-MEL-2 melanoma, 26.4 µM. Further, the TGI worked out at 12.7 µM in the experiment on MCF7 breast; 20.3 µM in the experiment on NCI-H23 lung; 14.3 µM in the experiment on CAKI-1 renal; 16.1 µM in the experiment on PC-3 prostate; 20.1 µM with M14 melanoma; 16.7 µM in the experiment with DU-145 prostate. Further, the TGI in the experiment with MOLT-4 leukemia amounted to 5.69 µM; in the experiment with HCT-116 colon, 14.4 µM; with RPMI-8226 leukemia, 7.16 µM; in the experiment on OVCAR-4 ovarian, 3.31 µM; with T-47D breast it was 31 µM; with SW-620 colon, 13.5 µM. Also, the TGI in the experiment on A549 NSCLC turned out to be 13.4 µM; in the experiment on SN12C renal it was 15.3 µM.

As for `O=C(c1ccco1)N(C(=S)OCCOc1ccccc1)c1ccccc1`, the TGI was 45.3 µM in the experiment with HCT-15 colon; 53.4 µM with ACHN renal; 43.5 µM in the experiment on BT-549 breast; 38.2 µM in the experiment on OVCAR-8 ovarian; 42.1 µM in the experiment on HT29 colon; 41.1 µM in the experiment on SK-MEL-2 melanoma. The TGI in the experiment with MCF7 breast came out at 42.8 µM; in the experiment with NCI-H23 lung, 39.9 µM; in the experiment on CAKI-1 renal, 48.4 µM; with PC-3 prostate, 57.8 µM; with M14 melanoma, 37.3 µM; in the experiment on DU-145 prostate, 51.6 µM. For the same compound, the TGI in the experiment on MOLT-4 leukemia came out at 55.3 µM; with HCT-116 colon, 32.5 µM; in the experiment on RPMI-8226 leukemia it was 47.2 µM; with OVCAR-4 ovarian it was 57.3 µM; with T-47D breast it was 76.2 µM; with SW-620 colon, 41.8 µM. Also, the TGI in the experiment with A549 NSCLC worked out at 90.2 µM; in the experiment on SN12C renal it was 39.1 µM.

`CN(C(=O)Cc1cccc(N=C=S)c1)[C@H]1CCCC[C@@H]1N1CCCC1`: the TGI in the experiment on HCT-15 colon is 31.2 µM; in the experiment on ACHN renal, 27.2 µM; with BT-549 breast, 23.8 µM; in the experiment with OVCAR-8 ovarian it was 42.2 µM; with HT29 colon, 26.4 µM; in the experiment with SK-MEL-2 melanoma it was 34.4 µM. Moreover, the TGI with MCF7 breast is 27.5 µM; in the experiment with NCI-H23 lung, 29.5 µM; in the experiment on CAKI-1 renal, 29.5 µM; with PC-3 prostate, 32.2 µM; in the experiment with M14 melanoma, 41.1 µM; with DU-145 prostate it was 27.7 µM. The TGI in the experiment on MOLT-4 leukemia amounted to 29 µM; in the experiment with HCT-116 colon, 26 µM; in the experiment on RPMI-8226 leukemia it was 32.3 µM; in the experiment on OVCAR-4 ovarian, 28.5 µM; with T-47D breast it was 26.8 µM; in the experiment on SW-620 colon, 36.2 µM. Moreover, the TGI in the experiment on A549 NSCLC was found to be 33.9 µM; in the experiment with SN12C renal, 29.5 µM.

In the case of `O=C1NC2O[C@H](CNC(=O)c3cc(Br)c[nH]3)CC2(O)N1` (mixture of isomers), the TGI in the experiment on HCT-15 colon, in the experiment with ACHN renal, with BT-549 breast, in the experiment with OVCAR-8 ovarian, in the experiment with HT29 colon and in the experiment on SK-MEL-2 melanoma was greater than 100 µM throughout. Besides, the TGI in the experiment with MCF7 breast, in the experiment with NCI-H23 lung, in the experiment on CAKI-1 renal, in the experiment with PC-3 prostate, in the experiment with M14 melanoma and in the experiment on DU-145 prostate was greater than 100 µM in each case. The TGI with MOLT-4 leukemia, in the experiment on HCT-116 colon, with RPMI-8226 leukemia, with OVCAR-4 ovarian, in the experiment with T-47D breast and in the experiment on SW-620 colon was greater than 100 µM throughout. The TGI in the experiment with A549 NSCLC and in the experiment with SN12C renal was greater than 100 µM each time.
